Experimental data as given in US7195901B1 (priority 2004, dated 2007).

Test system: yeast endogenous DGAT
Assay type: biochemical, S. cerevisiae
Conditions: 1 mM diricinolein; yeast grown under repression (2% glucose) condition

1,2-diricinolein
absolute incorporation of 14C-oleate into RRO: less than 20 pmol/mg/min
